Tests used:
SR = experiment: cells; settings: Homo sapiens
Description: Anticancer activity against human SR cells

HT-29 = experiment: cells; settings: Homo sapiens
Description: Anticancer activity against human HT-29 cells

SF-295 = experiment: cells; settings: Homo sapiens
Description: Anticancer activity against human SF295 cells

NCI-H226 = experiment: cells; settings: Homo sapiens
Description: Anticancer activity against human NCI-H226 cells

A498 = experiment: cells; settings: Homo sapiens
Description: Anticancer activity against human A498 cells

A549 = experiment: cells; settings: Homo sapiens
Description: Anticancer activity against human A549 cells

IGROV-1 = experiment: cells; settings: Homo sapiens
Description: Anticancer activity against human IGROV1 cells

MDA-MB-435 = experiment: cells; settings: Homo sapiens
Description: Anticancer activity against human MDA-MB-435 cells

SF-539 = experiment: cells; settings: Homo sapiens
Description: Anticancer activity against human SF539 cells

SF-268 = experiment: cells; settings: Homo sapiens
Description: Anticancer activity against human SF268 cells

cells [1] = settings: Homo sapiens
Description: Anticancer activity against human RPMI8266 cells

OVCAR-4 = experiment: cells; settings: Homo sapiens
Description: Anticancer activity against human OVCAR4 cells

EKVX = experiment: cells; settings: Homo sapiens
Description: Anticancer activity against human EKVX cells

M14 = experiment: cells; settings: Homo sapiens
Description: Anticancer activity against human M14 cells

MDA-MB-468 = experiment: cells; settings: Homo sapiens
Description: Anticancer activity against human MDA-MB-468 cells

TK-10 = experiment: cells; settings: Homo sapiens
Description: Anticancer activity against human TK10 cells

COLO 205 = experiment: cells; settings: Homo sapiens
Description: Anticancer activity against human COLO205 cells

SNB-75 = experiment: cells; settings: Homo sapiens
Description: Anticancer activity against human SNB75 cells

786-0 = experiment: cells; settings: Homo sapiens
Description: Anticancer activity against human 786-0 cells

Nucleic Acid = settings: Homo sapiens
Description: Binding affinity to human G-quadruplex DNA assessed as change in melting temperature by FRET-melting assay

HCT-116 = experiment: cells; settings: Homo sapiens
Description: Anticancer activity against human HCT116 cells

UACC-62 = experiment: cells; settings: Homo sapiens
Description: Anticancer activity against human UACC62 cells

NCI/ADR-RES = experiment: cells; settings: Homo sapiens
Description: Anticancer activity against human NCI/ADR-RES cells

RXF 393 = experiment: cells; settings: Homo sapiens
Description: Anticancer activity against human RXF393 cells

NCI-H460 = experiment: cells; settings: Homo sapiens
Description: Anticancer activity against human NCI-H460 cells

CCRF-CEM = experiment: cells; settings: Homo sapiens
Description: Anticancer activity against human CCRF-CEM cells

U-251 = experiment: cells; settings: Homo sapiens
Description: Anticancer activity against human U251 cells

cells [2] = settings: Homo sapiens, Hs-578T
Description: Anticancer activity against human Hs 578T cells

LOX IMVI = experiment: cells; settings: Homo sapiens
Description: Anticancer activity against human LOXIMVI cells

Description for physchem: Dissociation constant, pKa of the compound by UV-visible spectroscopy

C[n+]1c2ccccc2c(NC2CCNCC2)c2[nH]c3ccccc3c21.[Cl-]
GI50 (SR; read-out: pGI50 (converted)): 1.7 µM | CC50 (SR; read-out: pLC50 (converted)): > 100 µM | TGI (SR; read-out: pTGI): > 100 µM | GI50 (HT-29; HT-29, read-out: pGI50 (converted)): 0.209 µM | CC50 (HT-29; HT-29, read-out: pLC50 (converted)): 70.8 µM | TGI (HT-29; HT-29, read-out: pTGI): 10.2 µM | GI50 (SF-295; SF-295, read-out: pGI50 (converted)): 0.741 µM | CC50 (SF-295; SF-295, read-out: pLC50 (converted)): 77.6 µM | TGI (SF-295; SF-295, read-out: pTGI): 10.2 µM | GI50 (NCI-H226; NCI-H226, read-out: pGI50 (converted)): 0.537 µM | CC50 (NCI-H226; NCI-H226, read-out: pLC50 (converted)): 28.8 µM | TGI (NCI-H226; NCI-H226, read-out: pTGI): 3.24 µM | pKa (physchem): 11.8 | GI50 (A498; A498, read-out: pGI50 (converted)): 1.62 µM | CC50 (A498; A498, read-out: pLC50 (converted)): 26.3 µM | TGI (A498; A498, read-out: pTGI): 5.13 µM | GI50 (A549; A549, read-out: pGI50 (converted)): 0.0776 µM | CC50 (A549; A549, read-out: pLC50 (converted)): > 100 µM | TGI (A549; A549, read-out: pTGI): 13.8 µM | GI50 (IGROV-1; IGROV-1, read-out: pGI50 (converted)): 0.363 µM | CC50 (IGROV-1; IGROV-1, read-out: pLC50 (converted)): > 100 µM | TGI (IGROV-1; IGROV-1, read-out: pTGI): 5.01 µM | GI50 (MDA-MB-435; MDA-MB-435, read-out: pGI50 (converted)): 2.95 µM | CC50 (MDA-MB-435; MDA-MB-435, read-out: pLC50 (converted)): 42.7 µM | TGI (MDA-MB-435; MDA-MB-435, read-out: pTGI): 10.5 µM | GI50 (SF-539; SF-539, read-out: pGI50 (converted)): 1.66 µM | CC50 (SF-539; SF-539, read-out: pLC50 (converted)): 28.8 µM | TGI (SF-539; SF-539, read-out: pTGI): 7.41 µM | GI50 (SF-268; SF-268, read-out: pGI50 (converted)): 0.0457 µM | CC50 (SF-268; SF-268, read-out: pLC50 (converted)): 42.7 µM | TGI (SF-268; SF-268, read-out: pTGI): 1.38 µM | GI50 (cells [1]; RPMI8266, read-out: pGI50 (converted)): 0.661 µM | CC50 (cells [1]; RPMI8266, read-out: pLC50 (converted)): > 100 µM | TGI (cells [1]; RPMI8266, read-out: pTGI): 3.89 µM | GI50 (OVCAR-4; OVCAR-4, read-out: pGI50 (converted)): 0.316 µM | CC50 (OVCAR-4; OVCAR-4, read-out: pLC50 (converted)): 36.3 µM | TGI (OVCAR-4; OVCAR-4, read-out: pTGI): 3.8 µM | GI50 (EKVX; read-out: pGI50 (converted)): 0.525 µM | CC50 (EKVX; read-out: pLC50 (converted)): > 100 µM | TGI (EKVX; read-out: pTGI): 8.32 µM | GI50 (M14; M14, read-out: pGI50 (converted)): 3.16 µM | CC50 (M14; M14, read-out: pLC50 (converted)): 43.7 µM | TGI (M14; M14, read-out: pTGI): 15.1 µM | GI50 (MDA-MB-468; MDA-MB-468, read-out: pGI50 (converted)): 0.234 µM | CC50 (MDA-MB-468; MDA-MB-468, read-out: pLC50 (converted)): 6.92 µM | TGI (MDA-MB-468; MDA-MB-468, read-out: pTGI): 1.58 µM | GI50 (TK-10; TK-10, read-out: pGI50 (converted)): 3.09 µM | CC50 (TK-10; TK-10, read-out: pLC50 (converted)): > 100 µM | TGI (TK-10; TK-10, read-out: pTGI): 14.5 µM | GI50 (COLO 205; COLO 205, read-out: pGI50 (converted)): 0.339 µM | CC50 (COLO 205; COLO 205, read-out: pLC50 (converted)): 14.5 µM | TGI (COLO 205; COLO 205, read-out: pTGI): 2.4 µM | GI50 (SNB-75; SNB-75, read-out: pGI50 (converted)): 1.38 µM | CC50 (SNB-75; SNB-75, read-out: pLC50 (converted)): 24.5 µM | TGI (SNB-75; SNB-75, read-out: pTGI): 5.37 µM | GI50 (786-0; 786-0, read-out: pGI50 (converted)): 3.47 µM | CC50 (786-0; 786-0, read-out: pLC50 (converted)): > 100 µM | TGI (786-0; 786-0, read-out: pTGI): 18.2 µM | ΔTm (Nucleic Acid): 19.9 °C | GI50 (HCT-116; HCT-116, read-out: pGI50 (converted)): 0.813 µM | CC50 (HCT-116; HCT-116, read-out: pLC50 (converted)): > 100 µM | TGI (HCT-116; HCT-116, read-out: pTGI): 4.9 µM | GI50 (UACC-62; UACC-62, read-out: pGI50 (converted)): 0.2 µM | CC50 (UACC-62; UACC-62, read-out: pLC50 (converted)): 3.63 µM | TGI (UACC-62; UACC-62, read-out: pTGI): 0.933 µM | GI50 (NCI/ADR-RES; read-out: pGI50 (converted)): > 100 µM | CC50 (NCI/ADR-RES; read-out: pLC50 (converted)): > 100 µM | TGI (NCI/ADR-RES; read-out: pTGI): > 100 µM | GI50 (RXF 393; RXF 393, read-out: pGI50 (converted)): 1.62 µM | CC50 (RXF 393; RXF 393, read-out: pLC50 (converted)): 26.3 µM | TGI (RXF 393; RXF 393, read-out: pTGI): 4.9 µM | GI50 (NCI-H460; NCI-H460, read-out: pGI50 (converted)): 0.245 µM | CC50 (NCI-H460; NCI-H460, read-out: pLC50 (converted)): 22.4 µM | TGI (NCI-H460; NCI-H460, read-out: pTGI): 1.62 µM | GI50 (CCRF-CEM; read-out: pGI50 (converted)): 0.457 µM | CC50 (CCRF-CEM; read-out: pLC50 (converted)): 52.5 µM | TGI (CCRF-CEM; read-out: pTGI): 3.02 µM | GI50 (U-251; U-251, read-out: pGI50 (converted)): 0.282 µM | CC50 (U-251; U-251, read-out: pLC50 (converted)): > 100 µM | TGI (U-251; U-251, read-out: pTGI): 2.95 µM | GI50 (cells [2]; read-out: pGI50 (converted)): 0.12 µM | CC50 (cells [2]; read-out: pLC50 (converted)): 44.7 µM | TGI (cells [2]; read-out: pTGI): 1.12 µM | GI50 (LOX IMVI; read-out: pGI50 (converted)): 1.7 µM | CC50 (LOX IMVI; read-out: pLC50 (converted)): 49 µM | TGI (LOX IMVI; read-out: pTGI): 5.25 µM
